Test results: ChEMBL document CHEMBL4680105, “Discovery of Benzenesulfonamide Derivatives as Carbonic Anhydrase Inhibitors with Effective Anticonvulsant Action: Design, Synthesis, and Pharmacological Evaluation” (J Med Chem, 2018)
Each block holds one molecule with its values, some of them ahead of it.

How the values were obtained:
Carbonic anhydrase 9 = Carbonic anhydrase 9 (Homo sapiens, UniProt Q16790); experiment: Inhibition of recombinant human carbonic anhydrase 9 by stopped-flow CO2 hydration assay
Mus musculus [1] = experiment: Anticonvulsant activity in Swiss Albino mouse assessed as protection against seizure at 100 mg/kg, ip measured after 3 hrs by sc-PTZ seizure test relative to control; assay type: functional
Mus musculus [2] = experiment: (§1) Anticonvulsant activity in Swiss Albino mouse model of maximal electroshock-induced seizure assessed as protection against seizure by measuring suppression of hind limb extension at 30 mg/kg, ip pretreated for 30 mins before seizure stimulation and measured after 3 hrs by MES test relative to control; assay type: functional; details: time 3.5 hrs
Mus musculus [3] = experiment: Anticonvulsant activity in Swiss Albino mouse assessed as protection against seizure at 30 mg/kg, ip measured after 0.5 hrs by sc-PTZ seizure test relative to control; assay type: functional
Mus musculus [4] = experiment: as §1, with “after 0.5” for “after 3”; assay type: functional; details: time 60 min, 1 h
Mus musculus [5] = experiment: Anticonvulsant activity in Swiss Albino mouse assessed as protection against seizure at 100 mg/kg, ip measured after 0.5 hrs by sc-PTZ seizure test relative to control; assay type: functional
Mus musculus [6] = experiment: as §1, with “at 100” for “at 30”, “after 0.5” for “after 3”; assay type: functional; details: time 60 min, 1 h
Mus musculus [7] = experiment: Anticonvulsant activity in Swiss Albino mouse assessed as protection against seizure at 30 mg/kg, ip measured after 3 hrs by sc-PTZ seizure test relative to control; assay type: functional
Mus musculus [8] = experiment: as §1, with “at 100” for “at 30”; assay type: functional; details: 0.5 h

Ki (Carbonic anhydrase 9): 136 nM
SMILES: COc1ccc(N2CCN(CCC(=O)NCc3ccc(S(N)(=O)=O)cc3)CC2)cc1

Ki (Carbonic anhydrase 9): 2230 nM
SMILES: NS(=O)(=O)c1ccc(CNC(=O)CN2CCN(c3ncccn3)CC2)cc1
Activity (Mus musculus [1]): 50%
Activity (Mus musculus [2]): 67%
Activity (Mus musculus [3]): 33%
Activity (Mus musculus [4]): 50%
Activity (Mus musculus [5]): 50%
Activity (Mus musculus [6]): 50%
Activity (Mus musculus [7]): 50%
Activity (Mus musculus [8]): 83%

Continued, molecule first:

SMILES: NS(=O)(=O)c1ccc(CNC(=O)CCN2CCN(c3ncccn3)CC2)cc1
Ki (Carbonic anhydrase 9): 455 nM

SMILES: NS(=O)(=O)c1ccc(CNC(=O)CCN2CCN(C(c3ccccc3)c3ccccc3)CC2)cc1
Ki (Carbonic anhydrase 9): 890 nM

SMILES: COc1ccc(N2CCN(CC(=O)NCc3ccc(S(N)(=O)=O)cc3)CC2)cc1
Ki (Carbonic anhydrase 9): 1100 nM

SMILES: NS(=O)(=O)c1ccc(CNC(=O)CN2CCN(C(c3ccccc3)c3ccccc3)CC2)cc1
Ki (Carbonic anhydrase 9): 1680 nM
